Measured values reported in ChEMBL document CHEMBL1201862, “PubChem BioAssay data set” (2004).
Where “and” joins values, the source holds several entries; their conditions need not be identical. Equal values may be shown once. Calls of active or inactive are those of the source.

Legend:
Paired box protein Pax-8 = Paired box protein Pax-8 (Homo sapiens, UniProt Q06710); assay: PAX8 transcriptional activity inhibition in RMG-I – RMG-I cells, luciferase, cherry-pick, dose response (AID 687027); format: functional, cell-based;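 note: luciferase reporter driven by Pax8 target thyroperoxidase promoter measured by SteadyGlo luminescence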
[1] = toxicity toward immortalized ovarian surface epithelium – cell-based, plate reader, dry powder samples, cytotoxicity control for PAX8 inhibitor project, dose response (AID 743045); format: functional
[2] = CMV-driven luciferase expression suppression in HEK293 – cell-based, luminescence, dry powder, counter-screen for Pax8 inhibitor project, dose response (AID 743020); format: functional
[3] = OVCAR-3 cell viability loss – plate reader, dry powder samples, PAX8 inhibitor project, dose response (AID 743044); format: functional, cell-based
[4] = IGROV1 cell killing – plate reader, dry powder samples, PAX8 inhibitor project, dose response (AID 743043); format: functional, cell-based; conditions: IGROV-1
[5] = OVCAR8 cell viability loss – plate reader, dry powder samples, PAX8 project, dose response (AID 743197); format: functional, cell-based; conditions: OVCAR-8
[6] = inhibition of Env-driven cell fusion – HIV entry, plate reader, dry powder, dose response (AID 687023); format: functional, cell-based
[7] = viability loss in CEM21 cells – cell-based, plate reader, dry powder, cytotoxicity control, dose response (AID 687026); format: functional
[8] = target: NAD-dependent protein deacylase sirtuin-5, mitochondrial (Homo sapiens, UniProt Q9NXA8); assay: blockers of sirtuin-5 peptide desuccinylation – biochemical, fluorescence imaging, cherry-pick, set 6, dose response (AID 720597)
[9] = target: Protein disulfide-isomerase (Homo sapiens, UniProt P07237); assay: inhibition of PDI-mediated insulin reduction – biochemical, turbidity, dry powder samples, set 2, confirmation (AID 652146)
[10] = A549 cell cytotoxicity, dose response, cytotoxicity control, plate reader, cherry-pick, antagonist series (AID 743412); format: functional, cell-based
[11] = toxicity toward HepG2 liver cells – cell-based, plate reader, cherry-pick, antagonist series, cytotoxicity control, dose response (AID 743416); format: functional
[12] = blockers of bursicon-stimulated LGR2 cAMP reporter – cell-based, HEK293, CRE-luciferase reporter, cherry pick, set 2, dose response (AID 743343); format: functional;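 note: transfected cells were stimulated with diluted bursicon conditioned medium after compound addition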
[13] = viability loss in HepG2 hepatoma cells – cell-based, cherry-picks, set 5, cytotoxicity control, dose response (AID 1053118); format: functional
[14] = viability loss in HEK293 kidney cells – cell-based, cherry-picks, set 5, cytotoxicity control, dose response (AID 1053117); format: functional
[15] = viability loss in A549 lung cancer cells – cell-based, cherry-picks, […], cytotoxicity control, dose response (AID 1053119); format: functional
[16] = blockade of melanocortin 4 receptor signaling – cell-based, plate reader, cherry pick, counter-screen for LGR2 antagonist project, dose response (AID 743444); format: functional;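 note: transfected HEK 293 cells stimulated with alpha-MSH peptide; potency of inhibitors of the alpha-MSH evoked signal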
[17] = blockers of FN fibrillogenesis by fibroblasts – AH1F cells, Alexa488-FN fluorescence, cherry-picks, dose response (AID 1035475); format: functional, cell-based
[18] = viability loss in HEK293 cells – cell-based, plate reader, cherry-picked samples, cytotoxicity control, dose response (AID 743446); format: functional
Protein Wnt-3a = Protein Wnt-3a (Mus musculus, UniProt P27467); assay: SAR analysis of small molecule antagonists of Gli-SUFU in a Wnt3a luminescent reporter assay.; format: functional
[19] = T. cruzi growth inhibition in host cells, dose response, cell-based, plate reader, dry powder, set 2 (AID 652275); format: functional
[20] = viability of BHK-21 cells – cell-based, secondary screen, cytotoxicity control for flavivirus guanylyltransferase probe project (AID 624078); format: functional
[21] = inhibitors of non-replicating M. tuberculosis, dose response, luciferase, dry powder (AID 651619); format: functional; conditions: Mycobacterium tuberculosis
[22] = inhibitors of non-replicating M. tuberculosis, dose response, luciferase, dry powder (AID 651620); format: functional; conditions: Mycobacterium tuberculosis
[23] = kidney cell line viability loss – HEK293T, luminescence plate reader, powder samples, set 4, cytotoxicity control, dose response (AID 651863); format: functional, cell-based; conditions: HEK293

Sequence of Protein disulfide-isomerase (P07237 whole entry): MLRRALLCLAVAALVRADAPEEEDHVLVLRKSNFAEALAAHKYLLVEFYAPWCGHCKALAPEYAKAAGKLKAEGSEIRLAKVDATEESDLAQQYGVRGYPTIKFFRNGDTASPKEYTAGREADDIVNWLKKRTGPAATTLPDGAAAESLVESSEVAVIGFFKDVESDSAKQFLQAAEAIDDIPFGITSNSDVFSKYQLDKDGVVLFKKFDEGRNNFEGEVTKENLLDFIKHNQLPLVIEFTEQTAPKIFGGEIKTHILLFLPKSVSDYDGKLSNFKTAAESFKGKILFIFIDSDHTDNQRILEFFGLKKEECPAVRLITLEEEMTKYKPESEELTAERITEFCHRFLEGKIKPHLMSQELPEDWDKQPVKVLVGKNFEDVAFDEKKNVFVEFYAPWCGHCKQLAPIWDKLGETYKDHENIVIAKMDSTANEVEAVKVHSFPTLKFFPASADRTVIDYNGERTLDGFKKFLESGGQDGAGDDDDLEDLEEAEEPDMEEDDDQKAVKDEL
Sequence of Paired box protein Pax-8 (Q06710 whole entry): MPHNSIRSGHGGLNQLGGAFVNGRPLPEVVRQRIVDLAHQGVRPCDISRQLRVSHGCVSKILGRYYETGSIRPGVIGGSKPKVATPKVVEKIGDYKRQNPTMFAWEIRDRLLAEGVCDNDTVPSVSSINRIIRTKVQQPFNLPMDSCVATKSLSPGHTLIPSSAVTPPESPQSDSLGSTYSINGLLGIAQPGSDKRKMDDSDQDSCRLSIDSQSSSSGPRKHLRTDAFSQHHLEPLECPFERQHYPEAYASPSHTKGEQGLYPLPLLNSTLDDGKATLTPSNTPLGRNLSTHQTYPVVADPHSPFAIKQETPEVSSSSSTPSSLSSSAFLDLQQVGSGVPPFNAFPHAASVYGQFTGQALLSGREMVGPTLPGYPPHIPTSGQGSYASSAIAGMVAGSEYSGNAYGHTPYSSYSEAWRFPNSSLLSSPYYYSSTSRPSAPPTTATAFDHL
Sequence of NAD-dependent protein deacylase sirtuin-5, mitochondrial (Q9NXA8 whole entry): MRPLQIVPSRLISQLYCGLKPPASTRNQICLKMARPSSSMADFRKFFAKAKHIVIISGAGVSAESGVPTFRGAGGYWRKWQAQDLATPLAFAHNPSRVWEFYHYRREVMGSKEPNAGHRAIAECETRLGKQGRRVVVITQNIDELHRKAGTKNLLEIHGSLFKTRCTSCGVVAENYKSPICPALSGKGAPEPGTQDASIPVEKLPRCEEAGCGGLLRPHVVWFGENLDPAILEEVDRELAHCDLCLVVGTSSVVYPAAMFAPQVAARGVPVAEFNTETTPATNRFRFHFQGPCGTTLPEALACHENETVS
Sequence of Protein Wnt-3a (P27467 whole entry): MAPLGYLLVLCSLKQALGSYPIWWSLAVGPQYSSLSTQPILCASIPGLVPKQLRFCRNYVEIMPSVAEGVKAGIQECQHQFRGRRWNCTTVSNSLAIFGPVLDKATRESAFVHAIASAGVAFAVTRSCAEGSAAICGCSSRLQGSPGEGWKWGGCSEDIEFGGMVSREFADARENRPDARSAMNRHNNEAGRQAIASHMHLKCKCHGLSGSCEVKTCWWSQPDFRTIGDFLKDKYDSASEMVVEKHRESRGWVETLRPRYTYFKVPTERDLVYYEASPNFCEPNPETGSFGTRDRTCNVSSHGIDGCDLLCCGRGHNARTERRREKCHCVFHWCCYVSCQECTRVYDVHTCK

Compound: C[C@@H]1CN([C@H](C)CO)C(=O)c2cc(NS(=O)(=O)c3ccccc3)ccc2O[C@@H](C)CCCCO[C@H]1CN(C)Cc1ccc(C(F)(F)F)cc1
- AC50 (Paired box protein Pax-8): 5.82 µM (active)
- AC50 [1]: 55.1 µM (active)
- AC50 [2]: 29.8 µM (active)
- AC50 [3]: 15.7 µM (active)
- AC50 [4]: 35.8 µM (active)
- AC50 [5]: 17.6 µM (active)

Compound: CCOc1ccc(S(=O)(=O)NCc2ccncc2)cc1Cl
- AC50 [6]: 92.5 nM (active) and 125 nM (active)
- AC50 [7]: > 70 µM (inactive)

Compound: C[C@@H]1CCCCO[C@H](CN(C)Cc2ccccc2)[C@H](C)CN([C@H](C)CO)C(=O)c2cc(NC(=O)CCC(F)(F)F)ccc2O1
- AC50 [8]: > 30 µM (inactive)

Compound: CCNC(=O)C1(CCOc2ccccc2)CCN(Cc2ccc(O)c(Cl)c2)CC1
- AC50 [9]: > 30 µM (inactive)

Compound: C[C@@H]1CN([C@H](C)CO)C(=O)c2cccc(NC(=O)Nc3ccc(C(F)(F)F)cc3)c2O[C@@H]1CN(C)C(=O)Nc1cccc2ccccc12
- AC50 [10]: 16.4 µM (active)
- AC50 [11]: 19.6 µM (active)
- AC50 [12]: 19.4 µM (active)
- AC50 [13]: 32.5 µM (active)
- AC50 [14]: 29.2 µM (active)
- AC50 [15]: 24.3 µM (active)
- AC50 [16]: 14.3 µM (active)
- AC50 [17]: 7.47 µM (active)
- AC50 [18]: 14.8 µM (active)

Compound: N#Cc1cccc(C(=O)Nc2cc(N3CCCCC3)ncn2)c1
- IC50 (Protein Wnt-3a): > 21.8 µM (inactive)

Compound: CC(C)N1C[C@H](C)[C@@H](CN(C)Cc2ccc(F)cc2)Oc2c(C(=O)Nc3ccncc3)cccc2C1=O
- AC50 [19]: 0.313 µM (active)

Compound: Cc1cc(F)ccc1S(=O)(=O)Nc1cc(SCC(=O)O)c(O)c2ccccc12
- CC50 [20]: 10.7 µM (active)

Compound: c1ccc(-c2nnc(SCc3cccnc3)o2)cc1
- IC90 [21]: 8 µM (active)
- IC90 [22]: 8 µM (active)

Compound: CC(=O)Nc1cc(NS(=O)(=O)c2c(C)cc(C)cc2C)c2ccccc2c1O
- AC50 [23]: 32.3 µM (active)
